Data as given in US9120764B2, “Chromene derivatives” (Consejo Superior de Investigaciones Cientificas, priority 2010, dated 2015).

Experiments:
primary T lymphocytes [1] = assay: Inhibition of the production of cytokines by T lymphocytes caused by stimulation of the TCR; assay type: cell-based, human; settings: anti-CD3 10 μg/ml plus anti-CD28 1 μg/ml; IFNγ at 24 hours, TNFα, IL6, IL17a at 48 hours; FIG. 4
Procedure: The effect of the compounds ECRA20, ECRA24, and CBM-1 on the ability of the TCR to induce the secretion of cytokines by T lymphocytes, was evaluated in primary T lymphocytes obtained from blood of healthy human donor. Lymphocytes were stimulated with 10 μg/ml of anti-CD3 plus 1 μg/ml of anti-CD28 in the presence of the indicated quantities of the compounds and the cell supernatants were collected at 24 hours (IFNγ) and 48 hours (TNFα, IL6, and IL17a) to measure the concentration of cytokines secreted in the medium (FIG. 4).

[2] = molecular target: T1, interaction between TCR, through CD3ε, and the Nck SH3.1 domain (Homo sapiens, UniProt P16333); assay: In vitro "pull-down" assay of the TCR-Nck interaction; assay type: binding; settings: Jurkat lysate, GST-SH3.1(Nck) on agarose beads, Western blot densitometry; FIG. 1
T1 construct: the amino-terminal human Nck1 SH3.1 domain; made in house; host or cells: bacterial cultures (GST-SH3.1); the TCR/CD3ε is endogenous, from a lysate of human Jurkat cells
Procedure: To do so, 10 million from human T cell line Jurkat were stimulated with 10 μg/ml of an anti-CD3 antibody for 5 minutes at 37° C. After the stimulation, the cells were lysed in isotonic buffer containing 0.3% Brij96 detergent. After removing the nucleus and other cellular debris by centrifugation, cell lysate aliquots were incubated with 10 μl of agarose beads covalently bound to glutathione and bound in turn to 5 μg of purified GST-SH3.1 (Nck) protein from bacterial cultures. The GST-SH3.1(Nck) protein corresponds to a fusion protein between glutathione S-transferase (GST) and the amino-terminal human Nck1 SH3.1 domain. Each of the aliquots of the cell lysate were incubated with GST-SH3.1 (Nck) in the presence of the indicated concentrations of inhibitors. After incubation, the agarose beads were collected by centrifugation and the quantity of TCR associated with GST-SH3.1 (Nck) was assessed by SDS-PAGE and Western blot with an antibody against TCR CD3ζ subunit. The quantification of the ratio between the quantity of TCR joined to GST-SH3.1 (Nck) in the presence of each of the concentrations of inhibitors, with respect to the amount that is attached in the absence of inhibitors, was evaluated by densitometry and is expressed under each rail as a percentage (FIG. 1).

primary T lymphocytes [3] = assay: Inhibition of the proliferation of T lymphocytes caused by stimulation of the TCR (CFSE, flow cytometry); assay type: cell-based, human; settings: anti-CD3 10 μg/ml, 3 days, CFSE proliferation index; FIG. 3
Procedure: The effect of compounds ECRA20, ECRA24 and CBM-1 on the ability of the TCR to induce T lymphocyte proliferation was evaluated in primary T lymphocytes obtained from blood of healthy human donors. T lymphocytes were marked permanently with the fluorescent compound Carboxyfluorescein succinimidyl ester (CFSE) and incubated for 3 days at 37° C. on 96-well plates coated with antibody anti-CD3 (10 μg/ml) in the presence of the indicated concentrations of the compounds. Proliferation index was calculated from the intensity of fluorescence of CFSE measured by flow cytometry. As the cells divide they lose CFSE fluorescence because original fluorescence is divided between the daughter cells. This way each division is followed by a […] of CFSE per cell. So it is possible to calculate the number of divisions. Proliferation index is calculated by dividing the sum of the number of divisions by the calculated number of original parent cells, which have not divided any time. Black square indicates the rate of proliferation of lymphocytes stimulated and not treated with compounds and white square lymphocytes not stimulated with anti-CD3 (FIG. 3).

| Compound | production of cytokines by T lymphocytes caused by stimulation of the TCR (primary T lymphocytes [1]) | effect on the interaction between TCR, through CD3ε, and the Nck SH3.1 domain [2] | proliferation of T lymphocytes in response to stimulation of the TCR (primary T lymphocytes [3]) |
| --- | --- | --- | --- |
| Fc1ccc(C2=C(CN3CCCC3)COc3ccccc32)cc1 [ECRA20, 1-((4-(4-Fluorophenyl)-2H-cromen-3-il)methyl)pyrrolidine] | inhibit the production of cytokines | inhibitory effect | suppress the proliferation of T lymphocytes |
| COc1ccc2c(c1)C(c1ccc(F)cc1)=C(CN1CCCC1)CO2 [ECRA24, 1-((4-(4-Fluorophenyl)-6-methoxy-2H-chromen-3-yl)methyl)pyrrolidine] | inhibit the production of cytokines | inhibitory effect | suppress the proliferation of T lymphocytes |
